According to patent US20180327367A1, “MACROCYCLIC BROAD SPECTRUM ANTIBIOTICS” (priority 2015, published 2018):
≈ marks a conversion by molar mass, not a printed value. Like-named read-outs stand apart in the source and are kept apart here.

Experiments:
[1] = target: T1, SpsB (Staphylococcus aureus signal peptidase) (Staphylococcus aureus, UniProt P0A070); test: cell-based; type: biochemical; conditions: fluorogenic peptide substrate, kinetic read 30 min
T1 construct: This assay uses a suspension of Staphylococcus aureus cells as a source of SpsB instead of recombinant SpsB protein; endogenous in cells; host or cells: S. aureus, USA300 background, overexpressing SpsB (whole-cell suspension from frozen pellets)
T1 sequence (P0A070 whole entry): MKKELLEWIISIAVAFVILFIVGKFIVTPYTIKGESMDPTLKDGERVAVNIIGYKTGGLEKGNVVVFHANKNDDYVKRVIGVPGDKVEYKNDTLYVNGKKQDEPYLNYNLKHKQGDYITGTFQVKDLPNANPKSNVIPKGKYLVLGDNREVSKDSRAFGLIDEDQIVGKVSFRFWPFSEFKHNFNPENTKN
Procedure: A kinetic fluorogenic enzyme activity assay was used to assess inhibition of SpsB (Staphylococcus aureus signal peptidase) activity and IC50s were determined. This assay uses a suspension of Staphylococcus aureus cells as a source of SpsB instead of recombinant SpsB protein.
Cell preparation: Luria broth (LB) was inoculated with S. aureus (USA300 background, overexpressing SpsB) and shaken at 37° C. until an OD600 nm of 1.5-2.0 was reached (˜4 hr). The culture was then diluted to an OD600 nm of 1.0 with LB, aliquoted and centrifuged at 10,000×g for 2 mins. The supernatant was removed and the pellet was resuspended in phosphate buffer (1×PBS, 12.5 mg/L MgCl2, 25 mg/L CaCl2, 0.1% Tween-80) to an OD600 nm of 0.5, then centrifuged again at 10,000x g for 2 mins. The supernatant was removed and the pellets were frozen at −20° C.
Test compounds were prepared in DMSO at a concentration of 10 mg/mL. These compound stocks were diluted into DMSO to a concentration of 25 μg/mL and serial 3-fold dilutions were made in DMSO, for a total of 11 compound concentrations. 20 nL of each compound solution was pre-spotted into a white 384-well plate (50 μL/well polypropylene, Nunc) using acoustic fluid transfer (Echo).
Frozen S. aureus pellets were resuspended in assay buffer (1x PBS, 12.5 mg/L MgCl2, 25 mg/L CaCl2, 0.1% Tween-80) to an OD600 nm of 0.05, then mixed 1:1 (v/v) with 20 μM substrate ((Dabcyl)βAla-KPAKAAE(Edans)) in assay buffer, and this solution was added (20 μL/well) to the 384-well plate that had been pre-spotted with compound. Fluorescence intensity was then immediately read kinetically for 30 minutes with 2 minute read intervals to monitor cleavage of the internally quenched peptide substrate (excitation wavelength=340 nm, emission wavelength=490 nm, Molecular Devices Spectramax M5). Reaction rate (slope) was plotted against inhibitor concentration to derive the IC50.

[2] = system: Methicillin Resistant Staphylococcus aureus strain USA 300, NRS384; test: Minimum inhibitory concentration, broth micro-dilution (CLSI), S. aureus; type: cell-based; conditions: Staphylococcus aureus, MRSA / NRS 384 / USA300, 22 h, 35° C., 22 hours
In short: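 Ten-point 2-fold series began at 4 μg/mL in protocol 2 and 0.5 μg/mL in protocol 3, in cation-adjusted MHB plus 0.002% Tween-80. Bacteria added to OD600 0.0005 final and incubated at 35° C for 22 hours per CLSI microdilution.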

[3] = system: Escherichia coli MC4100 harboring the IMP4213 (E. coli IMP); test: microbe, parasite or virus in culture; type: cell-based; conditions: Escherichia coli, 22 h, read-out: MIC (μg/mL) E. coli IMP, E. coli MC4100 IMP4213, increased outer-membrane permeability; 35° C., 22 hours
In short: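 Colonies grown 20 hours at 35° C were suspended in cation-adjusted Mueller Hinton Broth with 0.002% Tween-80. Cells were then added to 2-fold compound dilutions starting at 4 or 0.5 μg/mL, at OD600 0.0005.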

[4] = system: Escherichia coli ATCC 25922; test: Minimum inhibitory concentration, broth micro-dilution (CLSI), E. coli; type: cell-based; conditions: Escherichia coli, ATCC25922, 22 h, 35° C., 22 hours
[5] = SpsB IC50, whole-cell S. aureus (USA300 background, overexpressing SpsB) as SpsB source
[6] = read-out: MIC (μg/mL) S. aureus, MRSA USA 300 NRS384
[7] = read-out: MIC (μg/mL) E. coli, E. coli ATCC 25922
[8] = MRSA USA 300 NRS384, read-out: MIC (μg/mL) S. aureus
[9] = E. coli ATCC 25922, read-out: MIC (μg/mL) E. coli

SMILES | IC50 [1, 5] [nM] | MIC [2, 6] [µg/mL] | MIC [3] [µg/mL] | MIC [4, 7] [µg/mL] | IC50 ([1]; read-out: SpsB IC50, whole-cell S. aureus (USA300 background, overexpressing SpsB) as SpsB source) [nM] | MIC [2, 8] [µg/mL] | MIC [4, 9] [µg/mL]
C[C@@H]1NC(=O)[C@@H](N(C)C(=O)[C@H](CCCCN)NC(=O)c2ccc(Oc3ccc(Cl)cc3)cc2)c2ccc(OCCN)c(c2)-c2cc(ccc2OCCN)C[C@@H](C(=O)NCC#N)NC1=O [Compound 116] | 1.3 | 0.13 (≈ 0.145 µM) | 0.063 (≈ 0.0703 µM) | 12 (≈ 13.4 µM) | – | – | –
C[C@@H]1NC(=O)[C@@H](N(C)C(=O)[C@H](CCCCN)NC(=O)Cc2ccc(-c3ccc(Cl)cc3)cc2)c2ccc(OCCN)c(c2)-c2cc(ccc2OCCN)C[C@@H](C(=O)NCC#N)NC1=O [Compound 117] | 2 | 0.13 (≈ 0.145 µM) | 0.5 (≈ 0.559 µM) | > 64 | – | – | –
C[C@@H]1NC(=O)[C@@H](N(C)C(=O)[C@H](CCCCN)NC(=O)c2ccc(-c3ccc(-c4ccccc4)cc3)cc2)c2ccc(OCCN)c(c2)-c2cc(ccc2OCCN)C[C@@H](C(=O)NCC#N)NC1=O [Compound 118] | 1.4 | 0.063 (≈ 0.0683 µM) | 0.031 (≈ 0.0336 µM) | 0.75 (≈ 0.813 µM) | – | – | –
C[C@@H]1NC(=O)[C@@H](N(C)C(=O)[C@H](CCN)NC(=O)c2ccc(C#Cc3ccccc3)cc2)c2ccc(OCCN)c(c2)-c2cc(ccc2OCCN)C[C@@H](C(=O)NCC#N)NC1=O [Compound 120] | 1 | 0.094 (≈ 0.112 µM) | 0.016 (≈ 0.019 µM) | 0.44 (≈ 0.523 µM) | – | – | –
C[C@@H]1NC(=O)[C@@H](N(C)C(=O)[C@H](CCN)NC(=O)c2ccc(CCc3ccccc3)cc2)c2ccc(OCCN)c(c2)-c2cc(ccc2OCCN)C[C@@H](C(=O)NCC#N)NC1=O [Compound 121] | 1.2 | 0.13 (≈ 0.154 µM) | 0.023 (≈ 0.0272 µM) | 2 (≈ 2.36 µM) | – | – | –
C[C@@H]1NC(=O)[C@@H](N(C)C(=O)[C@H](CCN)NC(=O)c2ccc(-c3ccc(-c4ccccc4)cc3)cc2)c2ccc(OCCN)c(c2)-c2cc(ccc2OCCN)C[C@@H](C(=O)NCC#N)NC1=O [Compound 122] | 1.6 | 0.063 (≈ 0.0705 µM) | 0.031 (≈ 0.0347 µM) | 0.25 (≈ 0.28 µM) | – | – | –
CCCCC1CCC(C(=O)N[C@@H](CCN)C(=O)N(C)[C@@H]2C(=O)N[C@@H](C)C(=O)N[C@H](C(=O)NCC#N)Cc3ccc(OCCN)c(c3)-c3cc2ccc3OCCN)CC1 (stereo partly drawn) [Compound 123] | – | – | 0.0078 (≈ 0.0097 µM) | – | 1.2 | 0.19 (≈ 0.236 µM) | 0.5 (≈ 0.622 µM)
CCCCc1ccc(C#CC(=O)N[C@@H](CCN)C(=O)N(C)[C@@H]2C(=O)N[C@@H](C)C(=O)N[C@H](C(=O)NCC#N)Cc3ccc(OCCN)c(c3)-c3cc2ccc3OCCN)cc1 [Compound 124] | 1.6 | – | 0.031 (≈ 0.0377 µM) | – | – | 0.13 (≈ 0.158 µM) | 2 (≈ 2.43 µM)
CCCCc1ccc(C(=O)N[C@@H](CCCN)C(=O)N(C)[C@@H]2C(=O)N[C@@H](C)C(=O)N[C@H](C(=O)NCC#N)Cc3ccc(OCCN)c(c3)-c3cc2ccc3OCCN)cc1 [Compound 127] | 5.9 | – | 0.063 (≈ 0.0776 µM) | – | – | 0.5 (≈ 0.616 µM) | 4 (≈ 4.93 µM)
CCCCCCCCCCNCCC(=O)N[C@@H](CCN)C(=O)N(C)[C@@H]1C(=O)N[C@@H](C)C(=O)N[C@H](C(=O)NCC#N)Cc2ccc(OCCN)c(c2)-c2cc1ccc2OCCN [Compound 129] | 0.67 | – | 0.094 (≈ 0.111 µM) | – | – | 0.023 (≈ 0.0271 µM) | 4 (≈ 4.71 µM)
CCCCCCCCCCNCCC(=O)N(C)[C@@H]1C(=O)N[C@@H](C)C(=O)N[C@H](C(=O)NCC#N)Cc2ccc(OCCN)c(c2)-c2cc1ccc2OCCN [Compound 131] | 0.74 | – | 1.8 (≈ 2.4 µM) | – | – | 0.047 (≈ 0.0628 µM) | 64 (≈ 85.5 µM)
CCCCCCCCCCNCC(=O)N(C)[C@@H]1C(=O)N[C@@H](C)C(=O)N[C@H](C(=O)NCC#N)Cc2ccc(OCCN)c(c2)-c2cc1ccc2OCCN [Compound 132] | 0.71 | 0.25 (≈ 0.34 µM) | 3 (≈ 4.08 µM) | > 64 | – | – | –
CCCCCCCCCNCCCC(=O)N(C)[C@@H]1C(=O)N[C@@H](C)C(=O)N[C@H](C(=O)NCC#N)Cc2ccc(OCCN)c(c2)-c2cc1ccc2OCCN [Compound 133] | 1.1 | – | > 4 | – | – | 0.25 (≈ 0.334 µM) | > 64
CCCCCCCCNCCCCC(=O)N(C)[C@@H]1C(=O)N[C@@H](C)C(=O)N[C@H](C(=O)NCC#N)Cc2ccc(OCCN)c(c2)-c2cc1ccc2OCCN [Compound 134] | 3.5 | – | > 4 | – | – | 1.5 (≈ 2 µM) | > 64
CCCCc1ccc(-c2ccc(C(=O)N[C@@H](CCCCN)C(=O)N(C)[C@@H]3C(=O)N[C@@H](C)C(=O)N[C@H](C(=O)N[C@H](C)C#N)Cc4ccc(OCCN)c(c4)-c4cc3ccc4OCCN)cc2)cc1 [Compound 136] | 10 | – | 0.38 (≈ 0.415 µM) | – | – | 2 (≈ 2.18 µM) | 8 (≈ 8.73 µM)
CCCCc1ccc(-c2cccc(C(=O)N[C@@H](CCCCN)C(=O)N(C)[C@@H]3C(=O)N[C@@H](C)C(=O)N[C@H](C(=O)NCC#N)Cc4ccc(OCCN)c(c4)-c4cc3ccc4OCCN)c2)cc1 [Compound 137] | 1.1 | – | 0.063 (≈ 0.0698 µM) | – | – | 0.063 (≈ 0.0698 µM) | 4 (≈ 4.43 µM)
C[C@@H]1NC(=O)[C@@H](N(C)C(=O)[C@H](CCN)NC(=O)c2ccc(-c3ccc4c(c3)CCCC4)cc2)c2ccc(OCCN)c(c2)-c2cc(ccc2OCCN)C[C@@H](C(=O)NCC#N)NC1=O [Compound 138] | 0.93 | 0.063 (≈ 0.0722 µM) | 0.055 (≈ 0.0631 µM) | 0.25 (≈ 0.287 µM) | – | – | –
C[C@@H]1NC(=O)[C@@H](N(C)C(=O)[C@H](CCN)NC(=O)c2ccc(-c3ccc4c(c3)CCCC4)cc2F)c2ccc(OCCN)c(c2)-c2cc(ccc2OCCN)C[C@@H](C(=O)NCC#N)NC1=O [Compound 139] | 0.94 | 0.047 (≈ 0.0528 µM) | 0.012 (≈ 0.0135 µM) | 0.25 (≈ 0.281 µM) | – | – | –
C[C@@H]1NC(=O)[C@@H](N(C)C(=O)[C@H](CCN)NC(=O)c2ccc(-c3ccc4c(c3)CCCC4)cc2Cl)c2ccc(OCCN)c(c2)-c2cc(ccc2OCCN)C[C@@H](C(=O)NCC#N)NC1=O [Compound 140] | 0.99 | 0.031 (≈ 0.0342 µM) | 0.0078 (≈ 0.0086 µM) | 0.13 (≈ 0.143 µM) | – | – | –
CCCCc1ccc(-c2ccc(C(=O)N[C@@H](CCCN)C(=O)N(C)[C@@H]3C(=O)N[C@@H](C)C(=O)N[C@H](C(=O)NCC#N)Cc4ccc(OCCN)c(c4)-c4cc3ccc4OCCN)c(C)c2)cc1 [Compound 142] | 0.72 | – | 0.042 (≈ 0.0466 µM) | – | – | 0.039 (≈ 0.0432 µM) | 0.16 (≈ 0.177 µM)
Cc1cc(-c2ccc(C(F)(F)F)cc2)ccc1C(=O)N[C@@H](CCN)C(=O)N(C)[C@@H]1C(=O)N[C@@H](C)C(=O)N[C@H](C(=O)NCC#N)Cc2ccc(OCCN)c(c2)-c2cc1ccc2OCCN [Compound 143] | 0.57 | – | 0.018 (≈ 0.02 µM) | – | – | 0.047 (≈ 0.0522 µM) | 0.44 (≈ 0.489 µM)
Cc1cc(-c2ccc(-c3ccccc3)cc2)ccc1C(=O)N[C@@H](CCN)C(=O)N(C)[C@@H]1C(=O)N[C@@H](C)C(=O)N[C@H](C(=O)NCC#N)Cc2ccc(OCCN)c(c2)-c2cc1ccc2OCCN [Compound 144] | 0.91 | – | 0.053 (≈ 0.0584 µM) | – | – | 0.031 (≈ 0.0341 µM) | 0.16 (≈ 0.176 µM)
Cc1cc(-c2ccc(C(C)C)cc2)ccc1C(=O)N[C@@H](CCN)C(=O)N(C)[C@@H]1C(=O)N[C@@H](C)C(=O)N[C@H](C(=O)NCC#N)Cc2ccc(OCCN)c(c2)-c2cc1ccc2OCCN [Compound 145] | 0.59 | – | 0.012 (≈ 0.0137 µM) | – | – | 0.047 (≈ 0.0538 µM) | 0.16 (≈ 0.183 µM)
Cc1cc(-c2ccc(CC(C)C)cc2)ccc1C(=O)N[C@@H](CCN)C(=O)N(C)[C@@H]1C(=O)N[C@@H](C)C(=O)N[C@H](C(=O)NCC#N)Cc2ccc(OCCN)c(c2)-c2cc1ccc2OCCN [Compound 146] | 0.9 | – | 0.0078 (≈ 0.00878 µM) | – | – | 0.047 (≈ 0.0529 µM) | < 0.063
